Several values for one entry are separate records, joined by “and”; a condition that tells them apart may be missing. Identical values can stand only once.
System: 931267-113-T-J1-PDC KRAS spheroid with HUVEC/MSC, viability
Test: Anticancer human tumor 931267-113-T-J1-PDC patient-derived colon adenocarcinoma cell line growth inhibition [KRAS2]
Conditions: for viability, T/C: stronger effect = lower value
Summary of the method: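 KRAS-mutant tumor cells were grown as spheroids with HUVEC endothelial cells and human MSCs as stroma. Targeted agents were tested alone and with KRAS pathway inhibitors. Doses started at or near clinical Cmax, or 10 microM, descending half-log.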

[1] = compound alone, run of 08/26/2021
[2] = compound alone, run of 09/02/2021
[3] = curve of first compound, second compound 0.1 µM
[4] = curve of first compound, second compound 0.316 µM
[5] = curve of first compound, second compound 1 µM
[6] = curve of first compound, second compound 3.16 µM
[7] = curve of first compound, second compound 10 µM
[8] = second compound 0.1 µM, first compound 0.0316 µM
[9] = second compound 0.1 µM, first compound 0.1 µM
[10] = second compound 0.1 µM, first compound 0.316 µM
[11] = second compound 0.1 µM, first compound 1 µM
[12] = second compound 0.1 µM, first compound 3.16 µM
[13] = second compound 0.1 µM, first compound 10 µM
[14] = second compound 0.316 µM, first compound 0.0316 µM
[15] = second compound 0.316 µM, first compound 0.1 µM
[16] = second compound 0.316 µM, first compound 0.316 µM
[17] = second compound 0.316 µM, first compound 1 µM
[18] = second compound 0.316 µM, first compound 3.16 µM
[19] = second compound 0.316 µM, first compound 10 µM
[20] = second compound 1 µM, first compound 0.0316 µM
[21] = second compound 1 µM, first compound 0.1 µM
[22] = second compound 1 µM, first compound 0.316 µM
[23] = second compound 1 µM, first compound 1 µM
[24] = second compound 1 µM, first compound 3.16 µM
[25] = second compound 1 µM, first compound 10 µM
[26] = second compound 3.16 µM, first compound 0.0316 µM
[27] = second compound 3.16 µM, first compound 0.1 µM
[28] = second compound 3.16 µM, first compound 0.316 µM
[29] = second compound 3.16 µM, first compound 1 µM
[30] = second compound 3.16 µM, first compound 3.16 µM
[31] = second compound 3.16 µM, first compound 10 µM
[32] = second compound 10 µM, first compound 0.0316 µM
[33] = second compound 10 µM, first compound 0.1 µM
[34] = second compound 10 µM, first compound 0.316 µM
[35] = second compound 10 µM, first compound 1 µM
[36] = second compound 10 µM, first compound 3.16 µM
[37] = second compound 10 µM, first compound 10 µM
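Note: compound exposure lasted 7 days before the readout.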
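Throughout, for viability, T/C: 100% = DMSO vehicle control viability.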

CNCc1ccccc1-c1csc(C(C)Nc2nc(C)nc3cc(OC)c(OC)cc23)c1 (stereo not drawn) was tested, and the viability, T/C (compound 10 µM) was 0.16% [middle of 14 runs], the IC50 [1] was 1.13 µM [middle of 5 runs] and the IC50 [2] was 952 nM [middle of 5 runs].

For CC1OCC2(CCN(c3cnc(Sc4ccnc(N)c4Cl)c(N)n3)CC2)C1N (stereo not drawn), the viability, T/C (compound 0.0316 µM) was 97.1% and 83.5% and 83%, the IC50 (compound alone, run of 08/19/2021) was over 10 µM and the IC50 [1] was over 10 µM. The IC50 [2] was over 10 µM and the IC50 (curve of compound) was over 10 µM.

Work on CC1OCC2(CCN(c3cnc(Sc4ccnc(N)c4Cl)c(N)n3)CC2)C1N (stereo not drawn) + COc1cc2nc(C)nc(NC(C)c3cc(N)cc(C(F)(F)F)c3)c2cc1OC1CCOC1 yielded an IC50 [3] of over 10 µM, an IC50 [4] of over 10 µM and an IC50 [5] of over 10 µM. It also gave an IC50 [6] of over 10 µM, an IC50 [7] of under 0.0316 µM and a viability, T/C [8] of 79.3%. It also gave a viability, T/C [9] of 59%, a viability, T/C [10] of 75.5% and a viability, T/C [11] of 77.5%. For the same compound, the viability, T/C [12] was 68.3%, the viability, T/C [13] was 90.7% and the viability, T/C [14] was 62.2%. For the same compound, the viability, T/C [15] was 56.1%, the viability, T/C [16] was 65% and the viability, T/C [17] was 68.1%. For the same compound, the viability, T/C [18] was 70.6%, the viability, T/C [19] was 77.9% and the viability, T/C [20] was 70.6%. It also gave a viability, T/C [21] of 72.8%, a viability, T/C [22] of 56% and a viability, T/C [23] of 63.1%. It also gave a viability, T/C [24] of 79%, a viability, T/C [25] of 64.9% and a viability, T/C [26] of 70.7%. It also gave a viability, T/C [27] of 49.8%, a viability, T/C [28] of 51.8% and a viability, T/C [29] of 54.9%. The viability, T/C [30] was 61.4%, the viability, T/C [31] was 67.6% and the viability, T/C [32] was 3.02%. For the same compound, the viability, T/C [33] was 2.08%, the viability, T/C [34] was 4.77% and the viability, T/C [35] was 2.12%. It also gave a viability, T/C [36] of 2.08% and a viability, T/C [37] of 0.42%.

Work on Cn1ncnc1[C@H]1c2n[nH]c(=O)c3cc(F)cc(c23)N[C@@H]1c1ccc(F)cc1 + COc1cc2nc(C)nc(NC(C)c3cc(N)cc(C(F)(F)F)c3)c2cc1OC1CCOC1 yielded an IC50 [3] of over 0.1 µM, an IC50 [4] of over 0.1 µM and an IC50 [5] of over 0.1 µM. The IC50 [6] was over 0.1 µM, the IC50 [7] was under 0.000316 µM and the viability, T/C (second compound 0.1 µM, first compound 0.000316 µM) was 103%. For the same compound, the viability, T/C (second compound 0.1 µM, first compound 0.001 µM) was 88.5%, the viability, T/C (second compound 0.1 µM, first compound 0.00316 µM) was 86.6% and the viability, T/C (second compound 0.1 µM, first compound 0.01 µM) was 107%. For the same compound, the viability, T/C [8] was 88.5%, the viability, T/C [9] was 74.4% and the viability, T/C (second compound 0.316 µM, first compound 0.000316 µM) was 83.9%. It also gave a viability, T/C (second compound 0.316 µM, first compound 0.001 µM) of 108%, a viability, T/C (second compound 0.316 µM, first compound 0.00316 µM) of 83.6% and a viability, T/C (second compound 0.316 µM, first compound 0.01 µM) of 96.3%. It also gave a viability, T/C [14] of 92.4%, a viability, T/C [15] of 77.9% and a viability, T/C (second compound 1 µM, first compound 0.000316 µM) of 108%. For the same compound, the viability, T/C (second compound 1 µM, first compound 0.001 µM) was 99.8%, the viability, T/C (second compound 1 µM, first compound 0.00316 µM) was 79.7% and the viability, T/C (second compound 1 µM, first compound 0.01 µM) was 88.3%. For the same compound, the viability, T/C [20] was 83.4%, the viability, T/C [21] was 95.4% and the viability, T/C (second compound 3.16 µM, first compound 0.000316 µM) was 69.5%. It also gave a viability, T/C (second compound 3.16 µM, first compound 0.001 µM) of 87%, a viability, T/C (second compound 3.16 µM, first compound 0.00316 µM) of 61.6% and a viability, T/C (second compound 3.16 µM, first compound 0.01 µM) of 67.6%. The viability, T/C [26] was 63.5%, the viability, T/C [27] was 52.4% and the viability, T/C (second compound 10 µM, first compound 0.000316 µM) was 0.8%. It also gave a viability, T/C (second compound 10 µM, first compound 0.001 µM) of 0.47%, a viability, T/C (second compound 10 µM, first compound 0.00316 µM) of 0.63% and a viability, T/C (second compound 10 µM, first compound 0.01 µM) of 1.27%. It also gave a viability, T/C [32] of 0.75% and a viability, T/C [33] of 1.25%.

For CC1COCCN1c1cc(-c2ccnn2C)c2ccnc(-c3ccn[nH]3)c2n1 (stereo not drawn), the viability, T/C (compound 0.1 µM) was 23.9% [middle of 5 runs], the viability, T/C (compound 0.316 µM) was 20.2% [middle of 5 runs] and the viability, T/C (compound 1 µM) was 21.8% [middle of 5 runs]. The viability, T/C (compound 3.16 µM) was 20.6% [middle of 5 runs] and the IC50 (curve of compound) was 54.7 nM [middle of 5 runs].

Work on CC1OCC2(CCN(c3cnc(Sc4ccnc(N)c4Cl)c(N)n3)CC2)C1N (stereo not drawn) + C=CC(=O)N1CCN(c2nc(=O)n(-c3c(C)ccnc3C(C)C)c3nc(-c4c(O)cccc4F)c(F)cc23)C(C)C1 yielded an IC50 [3] of over 10 µM, an IC50 [4] of over 10 µM and an IC50 [5] of over 10 µM. The IC50 [6] was over 10 µM, the IC50 [7] was over 10 µM and the viability, T/C [8] was 86.7%. The viability, T/C [9] was 73.4%, the viability, T/C [10] was 69.9% and the viability, T/C [11] was 64.8%. For the same compound, the viability, T/C [12] was 67.5%, the viability, T/C [13] was 77.4% and the viability, T/C [14] was 119%. The viability, T/C [15] was 92.3%, the viability, T/C [16] was 83.3% and the viability, T/C [17] was 73.6%. For the same compound, the viability, T/C [18] was 80.4%, the viability, T/C [19] was 83.5% and the viability, T/C [20] was 118%. The viability, T/C [21] was 87.8%, the viability, T/C [22] was 79% and the viability, T/C [23] was 64.1%. The viability, T/C [24] was 78.7%, the viability, T/C [25] was 78.9% and the viability, T/C [26] was 99.7%. For the same compound, the viability, T/C [27] was 91.8%, the viability, T/C [28] was 100% and the viability, T/C [29] was 87.3%. For the same compound, the viability, T/C [30] was 70.1%, the viability, T/C [31] was 82.3% and the viability, T/C [32] was 92.3%. The viability, T/C [33] was 74.8%, the viability, T/C [34] was 79.7% and the viability, T/C [35] was 75.6%. For the same compound, the viability, T/C [36] was 74.1% and the viability, T/C [37] was 67%.

COc1cc(Nc2ncc3c(n2)-c2ccc(Cl)cc2C(c2c(F)cccc2OC)=NC3)ccc1C(=O)O + COc1cc2nc(C)nc(NC(C)c3cc(N)cc(C(F)(F)F)c3)c2cc1OC1CCOC1 gave an IC50 [3] of over 10 µM, an IC50 [4] of over 10 µM and an IC50 [5] of over 10 µM. The IC50 [6] was over 10 µM, the IC50 [7] was 0.0539 µM and the viability, T/C [8] was 102%. For the same compound, the viability, T/C [9] was 85.6%, the viability, T/C [10] was 80.7% and the viability, T/C [11] was 79.5%. It also gave a viability, T/C [12] of 87.8%, a viability, T/C [13] of 57% and a viability, T/C [14] of 86.5%. The viability, T/C [15] was 93.5%, the viability, T/C [16] was 75.3% and the viability, T/C [17] was 72.4%. It also gave a viability, T/C [18] of 57.9%, a viability, T/C [19] of 54.3% and a viability, T/C [20] of 85.6%. The viability, T/C [21] was 79.8%, the viability, T/C [22] was 86.3% and the viability, T/C [23] was 78.7%. The viability, T/C [24] was 66.5%, the viability, T/C [25] was 58.9% and the viability, T/C [26] was 90%. It also gave a viability, T/C [27] of 91%, a viability, T/C [28] of 82.9% and a viability, T/C [29] of 83.1%. It also gave a viability, T/C [30] of 79%, a viability, T/C [31] of 49.6% and a viability, T/C [32] of 75.5%. For the same compound, the viability, T/C [33] was 7.27%, the viability, T/C [34] was 13.8% and the viability, T/C [35] was 12.1%. For the same compound, the viability, T/C [36] was 64.3% and the viability, T/C [37] was 4.17%.

CC(C)n1nc(-c2ccc3oc(N)nc3c2)c2c(N)ncnc21 was tested, and the viability, T/C (compound 0.000316 µM) was 90.9% [middle of 5 runs], the viability, T/C (compound 0.001 µM) was 92.8% [middle of 5 runs] and the viability, T/C (compound 0.00316 µM) was 66.5% [middle of 5 runs]. The viability, T/C (compound 0.0316 µM) was 26.9% [middle of 5 runs] and the viability, T/C (compound 0.1 µM) was 23.9% [middle of 5 runs].

In the case of CC(C)NCC(C(=O)N1CCN(c2ncnc3c2C(C)CC3O)CC1)c1ccc(Cl)cc1 (stereo not drawn), the viability, T/C (compound 0.0316 µM) is reported as 91.2% [middle of 5 runs], the viability, T/C (compound 0.316 µM) is reported as 89.6% [middle of 5 runs] and the viability, T/C (compound 1 µM) is reported as 78.3% [middle of 5 runs]. For the same compound, the viability, T/C (compound 3.16 µM) was 65.2% [middle of 5 runs] and the viability, T/C (compound 10 µM) was 42.5% [middle of 5 runs].

— PubChem BioAssay AID1963863 (Molecular Pharmacology Branch, DTP, NCI, 2024)
